Data on two compounds can be found in patent publication US10442800B2, “Crystal forms of NBI-98854, preparation method and use thereof” (Crystal Pharmaceutical (Suzhou) Co., Ltd., priority 2016, dated 2019).

What all share (type): physicochemical
A short description of series [1]: Hygroscopicity experiment by Dynamic Vapor Sorption (DVS). The conditions noted are these: 25° C.; for hygroscopicity class: Chinese Pharmacopoeia 2015 definition, 80% RH; for weight gain: DVS, at 80% RH. The procedure:
Dynamic Vapor Sorption (DVS) is measured via a SMS (Surface Measurement Systems Ltd.) intrinsic DVS. Its control software is DVS-Intrinsic control software, and its analysis software is DVS-Intrinsic analysis software. Typical Parameters for DVS test are as follows:
Gas and flow rate: N2, 200 mL/min
RH range: 0% RH to 95% RH
14.3 mg of Form CS1 was placed in a DVS instrument and underwent a cycle of 0%-95%-0% RH. The DVS curve is substantially as depicted in FIG. 12. A weight gain of 0.08% is observed at 80% RH.
8.6 mg of Form CS2 was placed in a DVS instrument and underwent a cycle of 40%-95%-0%-95% RH. A weight gain of 0.56% is observed at 80% RH.

Series [2] is described as follows: Stability assessment under storage (XRPD for crystalline form, HPLC for chemical purity). Conditions: for stability (overall conclusion): 25° C./60% RH and 40° C./75% RH for 1 month; for Purity / Initial purity: HPLC; for Initial purity: initial sample before storage; for Crystalline form: XRPD. The source says: X-ray powder diffraction pattern in the present disclosure was acquired by a Panalytical Empyrean X-ray powder diffractometer. The parameters of the X-ray powder diffraction method of the present disclosure were as follows:
High Performance Liquid Chromatography (HPLC) data in the present disclosure are collected from Agilent 1100 with diode array detector (DAD). The HPLC method parameters for purity test in the present disclosure are as follows:
1. Column: Waters Xbridge C18 150×4.6 mm, 5 μm
2. Mobile Phase: A: 0.1% TFA in H2O • B: 0.1% TFA in Acetonitrile • Gradient: […]
4. Injection Volume: 10 μL
5. Detection wavelength: 230 nm
6. Column Temperature: 40° C.
7. Diluent: 50% Acetonitrile
Form CS1 in the present disclosure was stored under different conditions of 25° C./60% RH and 40° C./75% RH for 1 month. Samples were taken at the end of 1 month. XRPD and HPLC were used to test the crystalline form and chemical purity. The XRPD overlay is shown in FIG. 14 (Above is the initial sample, in the middle is the sample placed under 25° C./60% RH for 1 month, at the bottom is the sample placed under 40° C./75% RH for 1 month).
Form CS2 in the present disclosure was stored under different conditions of 25° C./60% RH and 40° C./75% RH for 1 month. Samples were taken at the end of 1 month. XRPD and HPLC were used to test the crystalline form and chemical purity. The experimental results are summarized in Table 9. the XRPD overlay is shown in FIG. 15 (Above is the initial sample, in the middle is the sample placed under 25° C./60% RH for 1 month, at the bottom is the sample placed under 40° C./75% RH for 1 month).

The nature of series [3]: Morphology test by polarized light microscopy (PLM). Conditions: PLM image. Here is the method:
Form CS1 and Form CS2 in the present disclosure were tested by polarized light microscopy, and the results were depicted in FIG. 16 and FIG. 17. The morphologies of Form CS1 and Form CS2 are needle and block, respectively. Both forms disperse well and have little agglomeration. It can be seen from the PLM images that the morphologies of Form CS1 and Form CS2 in the present disclosure are suitable for the development of drug product.

As to `COc1cc2c(cc1OC)[C@H]1C[C@@H](OC(=O)[C@@H](N)C(C)C)[C@H](CC(C)C)CN1CC2` [Form CS2, (S)-2-amino-3-methyl-butyric acid (2R,3R,11bR)-3-isobutyl-9,10-dimethoxy-1,3,4 6,7,11b-hexahydro-2H-pyrido[2,1-a]isoquinolin-2-yl ester], in series [1], the hygroscopicity class entry is reported as “slightly hygroscopic” and the weight gain came to 0.56%. Besides, in series [2], the “stability (overall conclusion)” value is on record as “good stability” and the Initial purity worked out at 98.34%. In series [2] (after 25° C./60% RH (1 month)), the Purity came out at 98.60% and the Crystalline form result was “unchanged”. In series [2] (after 40° C./75% RH (1 month)), the Purity is reported as 97.38% and the Crystalline form result is given as “unchanged”. Moreover, in series [3], the morphology result is listed as “block”.

For the compound `COc1cc2c(cc1OC)[C@H]1C[C@@H](OC(=O)[C@@H](N)C(C)C)[C@H](CC(C)C)CN1CC2` [Form CS1, (S)-2-amino-3-methyl-butyric acid (2R,3R,11bR)-3-isobutyl-9,10-dimethoxy-1,3,4 6,7,11b-hexahydro-2H-pyrido[2,1-a]isoquinolin-2-yl ester], in series [1], the hygroscopicity class entry was “almost non hygroscopic” and the weight gain is reported as 0.08%. Besides, in series [2], the “stability (overall conclusion)” value was “good stability” and the Initial purity stood at 98.02%. In series [2] (after 25° C./60% RH (1 month)), the Purity came to 98.21% and the Crystalline form entry is “unchanged”. In addition, in series [2] (after 40° C./75% RH (1 month)), the Purity is on record as 97.76% and the Crystalline form entry is listed as “unchanged”. The morphology result in series [3] is on record as “needle”.
